Molecules are shown by their SMILES.

Data on 22 compounds can be found in US20240199587A1, “HETEROCYCLIC COMPOUNDS” (Hoffmann-La Roche Inc., priority 2021, published 2024).

The test concerns the target T1, MAGL (Homo sapiens, UniProt Q99685).
T1 sequence (Q99685 1-303): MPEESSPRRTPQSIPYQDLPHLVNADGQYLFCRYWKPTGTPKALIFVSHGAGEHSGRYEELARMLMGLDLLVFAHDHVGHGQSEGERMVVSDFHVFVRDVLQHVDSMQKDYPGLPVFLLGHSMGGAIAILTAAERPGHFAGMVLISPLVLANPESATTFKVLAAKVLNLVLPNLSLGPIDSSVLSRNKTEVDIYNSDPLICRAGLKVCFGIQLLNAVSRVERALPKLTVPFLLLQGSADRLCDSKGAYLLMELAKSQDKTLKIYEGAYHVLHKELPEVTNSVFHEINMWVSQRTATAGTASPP
Description: 2-AG assay (MAGL inhibitory activity, hydrolysis of 2-arachidonoylglycerol to arachidonic acid followed by mass spectrometry). Type of test: biochemical. The settings on record: 8 μM 2-arachidonoylglycerol, 15 min pre-incubation, 30 min incubation at RT, RapidFire MS readout. The gist of the method: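 Human MAGL ([…] final) pre-incubated 15 min at RT with compound in 50 mM TRIS, 1 mM EDTA, 0.01% Tween-20, 2.5% DMSO; 8 μM 2-AG then added for 30 min at RT. Acetonitrile quench with d8-arachidonic acid; arachidonic acid measured by RapidFire SPE–MS/MS, activity from arachidonic acid/d8 ratio.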
`Nc1ncc(S(=O)(=O)N2CC3(CN(C(=O)N4CC5(CC(n6cnc(C7CC7)n6)C5)C4)C3)C2)cn1` [Example 310, [2-(2-aminopyrimidin-5-yl)sulfonyl-2,6-diazaspiro[3.3]heptan-6-yl]-[6-(3-cyclopropyl-1,2,4-triazol-1-yl)-2-azaspiro[3.3]heptan-2-yl]methanone] registered an IC50 of 154 nM.
Consider `CNC(=O)C(c1ccccc1)N1CC2(CN(C(=O)N3CC4(CC(n5cnc(C6CC6)n5)C4)C3)C2)C1` (stereo not shown) [Example 311, 2-[2-[6-(3-cyclopropyl-1,2,4-triazol-1-yl)-2-azaspiro[3.3]heptane-2-carbonyl]-2,6-diazaspiro[3.3]heptan-6-yl]-N-methyl-2-phenyl-acetamide], for which half-maximal inhibition (IC50) required 176 nM.
In turn, `O=C(NCC(F)(F)F)c1cnn(C2CN(C(=O)N3CC4(CC(n5cnc(C6CC6)n5)C4)C3)C2)c1` [Example 312, 1-[1-[6-(3-cyclopropyl-1,2,4-triazol-1-yl)-2-azaspiro[3.3]heptane-2-carbonyl]azetidin-3-yl]-N-(2,2,2-trifluoroethyl)pyrazole-4-carboxamide] yielded a half-maximal inhibitory concentration (IC50) of 202 nM.
On to `O=C(O)c1ccccc1CN1CC2(C1)CN(C(=O)N1CC3(CC(n4cnc(C5CC5)n4)C3)C1)C2` [Example 313, 2-[[2-[6-(3-cyclopropyl-1,2,4-triazol-1-yl)-2-azaspiro[3.3]heptane-2-carbonyl]-2,6-diazaspiro[3.3]heptan-6-yl]methyl]benzoic acid], for which the IC50 amounted to 206 nM.
Compound `CN(C)S(=O)(=O)N1CC2(CN(C(=O)N3CC4(CC(n5cnc(C6CC6)n5)C4)C3)C2)C1` [Example 314, 6-[6-(3-cyclopropyl-1,2,4-triazol-1-yl)-2-azaspiro[3.3]heptane-2-carbonyl]-N,N-dimethyl-2,6-diazaspiro[3.3]heptane-2-sulfonamide] yielded an IC50 of 229 nM. This IC50 and that of the compound before are within 1.5-fold of each other.
The figure for `Cc1cn(C2CC3(C2)CN(C(=O)N2CC(OCc4ccc(S(F)(F)(F)(F)F)cc4)C2)C3)cn1` [Example 315, [6-(4-methylimidazol-1-yl)-2-azaspiro[3.3]heptan-2-yl]-[3-[[4-(pentafluoro-26-sulfanyl)phenyl]methoxy]azetidin-1-yl]methanone] is 240 nM; for `O=C(N1CC(Oc2nccc(C(F)(F)F)n2)C1)N1CC2(CC(n3cnc(C4CC4)n3)C2)C1` [Example 316, [6-(3-cyclopropyl-1,2,4-triazol-1-yl)-2-azaspiro[3.3]heptan-2-yl]-[3-[4-(trifluoromethyl)pyrimidin-2-yl]oxyazetidin-1-yl]methanone] it is 248 nM.
For `O=C(N1CC2(CC(n3cnc(C4CC4)n3)C2)C1)N1CC2(C1)CN(S(=O)(=O)c1cccnc1)C2` [Example 317, [6-(3-cyclopropyl-1,2,4-triazol-1-yl)-2-azaspiro[3.3]heptan-2-yl]-[2-(3-pyridylsulfonyl)-2,6-diazaspiro[3.3]heptan-6-yl]methanone], the IC50 was 274 nM. This IC50 and that of the compound before are within 1.5-fold of each other.
In turn, `O=C(N1CC2(CC(n3cnc(C4CC4)n3)C2)C1)N1CC2(C1)CN(S(=O)(=O)N1CCOCC1)C2` [Example 318, [6-(3-cyclopropyl-1,2,4-triazol-1-yl)-2-azaspiro[3.3]heptan-2-yl]-(2-morpholinosulfonyl-2,6-diazaspiro[3.3]heptan-6-yl)methanone] gave a half-inhibitory concentration (IC50) of 291 nM. This IC50 and that of the compound before are within 1.5-fold of each other.
Compound `NS(=O)(=O)c1ccc(F)c(CC2CCN(C(=O)N3CC4(CC(n5cnc(C6CC6)n5)C4)C3)CC2)c1` [Example 319] yielded an IC50 of 301 nM.
As for `CCCS(=O)(=O)N1CC2(CN(C(=O)N3CC4(CC(n5cnc(C6CC6)n5)C4)C3)C2)C1` [Example 320, [6-(3-cyclopropyl-1,2,4-triazol-1-yl)-2-azaspiro[3.3]heptan-2-yl]-(2-propylsulfonyl-2,6-diazaspiro[3.3]heptan-6-yl)methanone], it took 314 nM to reach half-maximal inhibition (IC50).
Take `O=C(N1CCC(NS(=O)(=O)c2ccc(C(F)(F)F)cc2)CC1)N1CC2(CC(n3cnc(C4CC4)n3)C2)C1` [Example 321, N-[1-[6-(3-cyclopropyl-1,2,4-triazol-1-yl)-2-azaspiro[3.3]heptane-2-carbonyl]-4-piperidyl]-4-(trifluoromethyl) benzenesulfonamide]: inhibition was half-maximal at 331 nM (IC50). This IC50 and that of the compound before are within 1.5-fold of each other.
For the compound `O=C(N1CC(Oc2nnccc2C(F)(F)F)C1)N1CC2(CC(n3cnc(C4CC4)n3)C2)C1` [Example 322, [6-(3-cyclopropyl-1,2,4-triazol-1-yl)-2-azaspiro[3.3]heptan-2-yl]-[3-[4-(trifluoromethyl)pyridazin-3-yl]oxyazetidin-1-yl]methanone], the half-maximal inhibitory concentration (IC50) came out at 340 nM.
Consider `NC(=O)c1ccccc1S(=O)(=O)N1CC2(CN(C(=O)N3CC4(CC(n5cnc(C6CC6)n5)C4)C3)C2)C1` [Example 323, 2-[[6-[6-(3-cyclopropyl-1,2,4-triazol-1-yl)-2-azaspiro[3.3]heptane-2-carbonyl]-2,6-diazaspiro[3.3]heptan-2-yl]sulfonyl]benzamide], for which it took 365 nM to reach half-maximal inhibition (IC50).
The compound `O=C(O)c1ccc(S(=O)(=O)N2CC3(CN(C(=O)N4CC5(CC(n6cnc(C7CC7)n6)C5)C4)C3)C2)cc1` [Example 324] had an IC50 of 402 nM.
The compound `O=C(N1CCC(CNS(=O)(=O)c2ccccc2)CC1)N1CC2(CC(n3cnc(C4CC4)n3)C2)C1` [Example 325, N-[[1-[6-(3-cyclopropyl-1,2,4-triazol-1-yl)-2-azaspiro[3.3]heptane-2-carbonyl]-4-piperidyl]methyl]benzene-sulfonamide] had an IC50 of 482 nM.
`NC(=O)[C@@H](c1ccc(F)cc1)N1CCN(C(=O)N2CC3(CC(n4cnc(C5CC5)n4)C3)C2)CC1` [Example 326, (2R)-2-[4-[6-(3-cyclopropyl-1,2,4-triazol-1-yl)-2-azaspiro[3.3]heptane-2-carbonyl]piperazin-1-yl]-2-(4-fluorophenyl)acetamide]: the IC50 was found to be 583 nM.
On to `O=C(O)c1ccc(F)c(S(=O)(=O)N2CC3(CN(C(=O)N4CC5(CC(n6cnc(C7CC7)n6)C5)C4)C3)C2)c1` [Example 327], for which the IC50 worked out at 611 nM. This IC50 and that of the compound before are within 1.5-fold of each other.
Turning to `CCc1ncnn1C1CC2(C1)CN(C(=O)N1CC3(CC(Cc4ccc(F)cc4F)C3)C1)C2` [Example 328, [6-[(2,4-difluorophenyl)methyl]-2-azaspiro[3.3]heptan-2-yl]-[6-(5-ethyl-1,2,4-triazol-1-yl)-2-azaspiro[3.3]heptan-2-yl]methanone], the midpoint of inhibition, the IC50, lay at 673 nM.
Turning to `O=C(N1CC2(CC(n3cnc(C4CC4)n3)C2)C1)N1CC2(C1)CN(S(=O)(=O)CC(F)(F)F)C2` [Example 329, [6-(3-cyclopropyl-1,2,4-triazol-1-yl)-2-azaspiro[3.3]heptan-2-yl]-[2-(2,2,2-trifluoroethylsulfonyl)-2,6-diazaspiro[3.3]heptan-6-yl]methanone], the concentration for half-maximal inhibition (IC50) came to 743 nM. The IC50 values of the last two compounds are within 1.5-fold of each other.
Compound `CNC(=O)[C@H](c1ccc(F)cc1)N1CCN(C(=O)N2CC3(CC(n4cnc(C5CC5)n4)C3)C2)CC1` [Example 330, (2S)-2-[4-[6-(3-cyclopropyl-1,2,4-triazol-1-yl)-2-azaspiro[3.3]heptane-2-carbonyl]piperazin-1-yl]-2-(4-fluorophenyl)-N-methyl-acetamide] had an IC50 of 744 nM.
The compound `Cn1cc(S(=O)(=O)N2CC3(CN(C(=O)N4CC5(CC(n6cnc(C7CC7)n6)C5)C4)C3)C2)cn1` [Example 331, [6-(3-cyclopropyl-1,2,4-triazol-1-yl)-2-azaspiro[3.3]heptan-2-yl]-[2-(1-methylpyrazol-4-yl)sulfonyl-2,6-diazaspiro[3.3]heptan-6-yl]methanone] returned an IC50 of 797 nM. The IC50 values of the last two compounds are within 1.5-fold of each other.

A word on the IC50: it is the concentration needed to halve the response being measured. Low values mean inhibition by little substance, high ones a need for much substance.
